Patent US20180134788A1, “Methods and Pharmaceutical Compositions (NTSR1 Inhibitors) for the Treatment of Hepatocellular Carcinomas” (INSERM (Institut National de la Sante et de la Recherche …, priority 2015, published 2018)

Columns and labels:
[1] = system: NTSR1 transcription in HuH7, HEP 3B and PLC/PRF5 cells; assay: NTSR1 transcript analysis in HCC cell lines; format: cell-based; conditions: three HCC cell lines, 20 nM LiCl for 6 h
Description: (§1) (A) NTS, NTSR2, NTSR3, and NTSR1 transcript analysis from 400 ng of HuH7, HEP 3B, and PLC/RF5, total RNA. NTSR1 A and NTSR1 B show the amplicon from two different set of primers. (B) Typical immunocytochemistry labeling for NTSR1 and DAPI in HEP 3B and PLC/RF5 cells. Cells were seeded on glass slides, grown for 48 h, and immunocytochemistry was performed as described in the Materials and Methods section. (C) NTSR1 transcript analysis from HuH7, HEP 3B and PLC/RF5 of total RNA from cells treated or not with […] LiCl for 6 h. (D) Typical immunocytochemistry NTSR1 labeling of HEP 3B and PLC/RF5 cells treated with 1 μM SB 216763 for 6 h.
(§2) Among the three cell lines studied, only PLC/PRF5 cells presented a dysregulation in the beta catenin pathway with a deletion in Axin (E4/−). […] We previously hypothesized that NTSR1 expression was correlated with deregulated wnt/beta catenin pathways. To evaluate this hypothesis, we forced the cellular and nuclear relocation of β-catenin in these cells lines with the LiCl, and an inhibitor of the glycogen synthase kinase (GSK) 3β, the SB216763. LiCl and SB216763 are known to decrease the degradation of β-catenin by inhibiting GSK-3 and promoting the accumulation of β-catenin in the cytoplasm of liver cancer cells.

[2] = system: phosphorylated-EGFR in HEP 3B and PLC/RF5 cells; assay: Western blot of Tyr 1173 phosphorylated EGFR in HCC cell lines; format: cell-based; conditions: both cell lines
Description: (§3) (A) Typical immunocytochemistry labeling for NTSR1 (Top) and EGFR (Bottom) in PLC/RF5 and HEP 3B cells treated or not with 1 μM SB216763 or 5 μM SR4892 or both for 48 h. (B and C) Representative western blot analyses of Tyr 1173 phosphorylated EGFR, EGFR, and actin of HEP 3B and PLC/RF5 treated as indicate above.
In both cell lines, phosphorylated-EGFR was increased under SB216763 treatment this increase was abolished when SR 48692 was added to the treatment.

[3] = system: EGFR expression in PLC/PRF5 and HEP3B cells; assay: EGFR immunocytochemistry labeling in HCC cell lines; format: cell-based; conditions: for EGFR expression: PLC/PRF5 and HEP3B, 48 h, 1 μM SB216763 or 5 μM SR48692
Description: as §3
(§4) It was previously shown that the NTS/NTSR1 complex potentiates EGF signaling in liver, colon, prostate, lung, and breast cancer. We investigated the possible relation between NTSR1 expression and EGFR expression and activation. […] Treatment with SR48692, a specific NTSR1 antagonist, decreased the expression of EGFR, whereas NTSR1 expression was not altered. When the combined treatment with SB216763 and SR48692 is used, the effect of SB216763 on EFGR expression is limited by the presence of the NTSR1 antagonist (FIG. 5A).

[4] = system: NTSR1 expression in HEP 3B and PLC/PRF5 cells; assay: NTSR1 immunocytochemistry labeling in HCC cell lines; format: cell-based; conditions: for NTSR1 expression: PLC/PRF5 and HEP3B, 48 h, 1 μM SB216763 or 5 μM SR48692
Description: as §1, §3, §2, §4

[5] = system: HEP3B cells with upregulated NTSR1 (HEP-R1a, HEP-R1b); assay: Boyden chamber invasion on type-I collagen-coated inserts; format: cell-based; conditions: HEP3B NTSR1 clones, 36 hours, 5 μM SR 48692 or antibodies
Description: (§5) (A) Speed of migration on type 1 collagen of HEP 3B and NTSR1 overexpressing clones treated or not with 1/100 NTS or 1/100 Long Fragment NTS antibody. Results represent the mean±SEM of 5 independent experiments. (B) Speed of migration on type 1 collagen of PLC/RF5 and NTSR1 overexpressing clones in the presence or not of 5 μM SR 48692. Results represent the mean±SEM of 3 independent experiments. (C) Numbers of invasive cells crossing the type I collagen in Boyden chamber when HEP 3B and NTSR1 overexpressing clones were treated or not with NTS or Long Fragment NTS antibody or 5 μM. SR 48692. Results are expressed relatively to wild type cells and represent the mean±SEM of 5 to 7 independent experiments.
In parallel, Boyden chambers were used to examine the invasiveness characteristics of HCC cancer cells, on type-I collagen-coated inserts over 36 hours incubation. Compared with HEP 3B cells, the number of invading cancer cells for HEP-R1a cells and HEP-R1b cells is increased by 211±19% (p<0.01) and 617±94% (p<0.01), respectively. To determine whether NTS contributes to cellular invasion, cells were exposed to the NTSR1 antagonist, or two antibodies directed against NTS or the long fragment NTS. […] In our hands, the PLC/PRF5 cells were very invasive.

[6] = system: PLC-R1a and PLC-R2a cells; assay: Migration assay on type 1 collagen, PLC/PRF5 NTSR1 overexpressing clones; format: cell-based; conditions: 5 μM SR 48692, vs DMSO
Description: as §5
Migration assays were used to evaluate the effect of NTS/NTSR1 on cancer cell migration, another hallmark contributing to the invasion and metastasis of cancers. The procedure described in the methods section allows the comparison of the migration speed between both cell lines at the same time over a period of 48 h, and on the intact type I collagen matrix. […] Similar observations were made with PLC/PRF5 cells and derivative clones.

HEP-R1a tumors = assay: HEP-R1a experimental tumor growth in mice; format: in vivo
Description: (§6) (A) Experimental tumors were generated from the HCC cancer cell line, HEP 3B and PLC/RF5 and the NTSR1-overexpressing subclones. Comparative growth curves of HEP 3B, HEP-R1a, PLC/RF5, PLC/R1 in 8, 7, 10 and 7 mice, respectively. Tumor volumes were measured twice a week. (B) Tumor weight at 42 days. (C and D) Experimental tumors were generated from HEP 3B or HEP-R1a in the different mice. When the tumor size reached 100 mm3, mice were randomly distributed in 2 groups. A control group force feed with H2O, or with 1 mg/kg SR 48692 every day. (E) Typical IHC performed on paraffin sections for NTS, NTSR1 EGFR and phosphorylated EGFR labelling, 200× magnification.
(§7) Experimental tumors were generated from HEP 3B (A) and HEP-R1a (B) in the same mice. Mice were treated per os with 75 mg/kg erlotinib every day for 22 days. Tumor size was measured every two days. Result shown is the ratio of tumor compare to day 1. (C) The doubling time was subsequently calculated using the following formula: doubling time=t*((LN(2))/(LN(VOL F/VOL I)), at day 22.
(§8) Experimental tumors were generated from HEP 3B (D) or HEP-R1a (E) in the different mice. When the tumor size reached 100 mm^3, mice were randomly distributed in 2 groups. A control group force feed with H2O, and the treated group, force feed every day with […] sorafenib. Result shown is the ratio of tumor compare to day 1. (F) Tumor weight at day 15.
(§9) To determine the contribution of NTS/NTSR1 complex on tumor progression, mice were implanted with HCC cell lines and NTSR1 overexpressing clones. For HEP3B cells the tumors were measurable 21 days after cells injection. In contrast, the tumor burden for both clones overexpressing NTSR1 was measurable at day 13. The growth rate at day 42 was 2.9 and 2.08 fold higher for HEP-R1a and PLC-R1a as compared to respective parental cells, respectively, (FIG. 7A). As shown in FIG. 7B the tumor weights were in correspondence with the tumor size 4.3 and 2.8 fold higher for HEP-R1a and PLC-R1a as compared to their respective parental cells, respectively. To confirm the contribution of NTS/NSTR1 complex in tumor growth, animals were treated with a specific NTSR1 antagonist, the SR 48692. When tumors reach 100 mm3, the groups were treated per os with H2O, or 1 mg/kg SR 48692, respectively. […] The final tumor size of HEP-R1a tumors treated with SR 48692 was 441.9±39.85 mm^3, and was very similar to the untreated HEP 3B tumors 516.3±139.72 mm^3.
(§10) As shown above, NTSR1 activation induced a sustained EGFR activation, which we believe, acts as EGFR driver mutation (FIG. 4). To explore this hypothesis, the HCC cell lines HEP 3B and HEP-R1a were xenografted on the same mice. The mice were randomly distributed in two groups based on the size of the HEP 3B tumors. Since HEP-R1a tumors grow faster than HEP 3B tumors, HEP 3B cells were injected a few days before HEP-R1a cells. In the control group, the average HEP3B tumor size was 168.2±38.1 mm3 and the HEP-R1a tumor size was 79.7±16.4 mm3 at day 1. The treated group carried HEP 3B tumors of 164.7±31.2 mm3 and HEP-R1a tumors of 87.2±19.13 mm3 at day 1. Mice were daily treated, per os, with 75 mg/kg erlotinib or H2O for 22 days. […] Over the period of the treatment, the doubling time of HEP-R1a tumors was 7.0±0.55 days and 10.1±1.1 (p=0.0016) for control and treated with erlotinib, respectively. For the HEP 3B tumors, the doubling time was similar 7.8±0.52 and 7.7±0.84 days for control and treated group respectively (FIG. 8 C).
Sorafenib is a known multikinase inhibitor targeting Raf/MEK/ERK signaling at the level of Raf kinase, angiogenesis, VEGFR-2/-3, and PDGFR-β tyrosine kinase. Sorafenib is currently used to treat HCC with some success. In order to evaluate the autocrine NTS regulation on sorafenib responses, each HEP 3B or HEP-R1a cells were injected to four groups of mice. When tumors reach 100 mm3, the groups were treated per os with H2O, 30 mg/kg sorafenib for 15 days, respectively. […]

HEP 3B tumors = assay: HEP 3B experimental tumor growth in mice; format: in vivo
Description: as §6, §7, §8, §9
as §10, with “C). […]” for “C).”

[7] = system: HEP-R1b and HEP-R1a cells; assay: Clonogenic assay, NTSR1 overexpressing clones; format: cell-based; conditions: two weeks
Description: (§11) (A) Cellular proliferation performed on HEP 3B and HEP-R1b cells. Results are the means of 3 independents experiments and expressed as percentage of respective control. (B) Clonogenic assay performed with HEP 3B and HEP-R1b cells treated with different dose of erlotinib. Cells were incubated for two weeks with the treatment. Results are the means of 6 independents experiments and expressed as percentage of respective control. (C) Cellular proliferation performed on HEP 3B and HEP-R1a cells. Results are the means of 6 independents experiments. (D) Clonogenic assay performed with HEP 3B and HEP-R1a cells treated with different dose of sorafenib. Cells were incubated for two weeks with the treatment. Results are the means of 6 independents experiments.
(§12) We confirmed the erlotinib and sorafenib responses in cells overexpressing NTSR1 in clonogenic assay. […] In contrast, HEP 3B cells are not sensitive either to erlotinib or sorafenib.

[8] = system: cells overexpressing NTSR1 versus HEP 3B cells; assay: Cellular proliferation test; format: cell-based; conditions: cells overexpressing NTSR1 compared with HEP 3B cells
Description: as §11, §12

HEP 3B cells = assay: Clonogenic assay, HEP 3B cells; format: cell-based; conditions: two weeks
Description: as §11, §12

advanced HCC = conditions: patients with advanced HCC and well-compensated liver function, oral; cited from earlier work
[9] = 30 mg/kg sorafenib per os, 15 days

Compound: [Cl-].[Li+] [LiCl]
- NTSR1 transcription [1]: upregulated

Compound: Cn1cc(C2=C(c3ccc(Cl)cc3Cl)C(=O)NC2=O)c2ccccc21 [SB216763]
- phosphorylated-EGFR ([2]; SB216763 treatment): increased
- EGFR expression [3]: increase
- NTSR1 immunolabeling signal ([4]; HEP3B and PLC/PRF5 cells, 1 μM SB 216763 for 6 h): remarkably amplified
- NTSR1 expression [4]: increase

Compound: COc1cccc(OC)c1-c1cc(C(=O)NC2(C(=O)O)C3CC4CC(C3)CC2C4)nn1-c1ccnc2cc(Cl)ccc12 (stereo not shown) [SR48692]
- SB216763-induced increase of phosphorylated-EGFR ([2]; SR 48692 added to SB216763 treatment): abolished
- increase of cellular invasion when NTSR1 is upregulated [5]: fully or partially abolished
- EGFR expression [3]: decreased
- effect of SB216763 on EGFR expression in presence of the NTSR1 antagonist ([3]; combined treatment 1 μM SB216763 and 5 μM SR48692, 48 h): limited
- decrease of migration speed ([6]; PLC-R1a cells): 27%
- decrease of migration speed ([6]; PLC-R2a cells): 33%
- final tumor size (HEP-R1a tumors; 1 mg/kg SR 48692 per os): 441.9±39.85 mm^3
- tumor growth rate (HEP-R1a tumors; 1 mg/kg SR 48692 per os every day): inhibited by two fold
- tumor growth rate (HEP 3B tumors; HEP 3B tumors, 1 mg/kg SR 48692 per os every day): no influence
- NTSR1 expression [4]: not altered

Compound: C#Cc1cccc(Nc2ncnc3cc(OCCOC)c(OCCOC)cc23)c1 [erlotinib]
- tumor growth rate (HEP-R1a tumors; 75 mg/kg erlotinib per os daily, 22 days): drastically affected
- tumor doubling time (HEP-R1a tumors; 75 mg/kg erlotinib, day 22): 10.1 ± 1.1 days
- tumor growth response (HEP 3B tumors; HEP3B tumors, 75 mg/kg erlotinib per os daily, 22 days): did not respond
- tumor doubling time (HEP 3B tumors; HEP 3B tumors, 75 mg/kg erlotinib, day 22): 7.7 ± 0.84 days
- number of colonies ([7]; HEP-R1b cells exposed to erlotinib): markedly reduced
- sensitivity in cellular proliferation test [8]: more sensitive
- sensitivity in clonogenic assay (HEP 3B cells): not sensitive

Compound: CNC(=O)c1cc(Oc2ccc(NC(=O)Nc3ccc(Cl)c(C(F)(F)F)c3)cc2)ccn1 [sorafenib]
- final tumor size (HEP-R1a tumors; [9]): 400.3±59.9 mm3
- tumor growth rate (HEP-R1a tumors; [9]): inhibited by two fold
- tumor weight (HEP-R1a tumors; sorafenib treated group, end of treatment (day 15)): 0.650 ± 0.080 g
- tumor growth rate (HEP 3B tumors; HEP 3B tumors, 30 mg/kg sorafenib per os, 15 days): no influence
- tumor weight versus control (HEP 3B tumors; HEP 3B tumors, sorafenib treated group, end of treatment): approximately equal
- survival (advanced HCC): prolong survival
- number of colonies ([7]; HEP-R1a cells exposed to sorafenib): markedly reduced
- sensitivity in cellular proliferation test [8]: more sensitive
- sensitivity in clonogenic assay (HEP 3B cells): not sensitive
